# Data as given in article PMC6941124 (International Journal of Molecular Sciences, 2019).
# Numbering of substitutions follows the chain as printed.
# Legend:
# Type in all cases: biochemical
# Conditions in all cases: inhibitor at IC50 concentration previously determined for CK1δ WT; DMSO control = 100%; adjusted to WT = 50%; mean ± SD
# CK1δ R168H = biological target: T1, CK1δ R168H (Homo sapiens, UniProt P48730, R168H); assay: in vitro kinase assay, CK1δ mutant R168H
# T1 sequence (P48730 1-415 R168H): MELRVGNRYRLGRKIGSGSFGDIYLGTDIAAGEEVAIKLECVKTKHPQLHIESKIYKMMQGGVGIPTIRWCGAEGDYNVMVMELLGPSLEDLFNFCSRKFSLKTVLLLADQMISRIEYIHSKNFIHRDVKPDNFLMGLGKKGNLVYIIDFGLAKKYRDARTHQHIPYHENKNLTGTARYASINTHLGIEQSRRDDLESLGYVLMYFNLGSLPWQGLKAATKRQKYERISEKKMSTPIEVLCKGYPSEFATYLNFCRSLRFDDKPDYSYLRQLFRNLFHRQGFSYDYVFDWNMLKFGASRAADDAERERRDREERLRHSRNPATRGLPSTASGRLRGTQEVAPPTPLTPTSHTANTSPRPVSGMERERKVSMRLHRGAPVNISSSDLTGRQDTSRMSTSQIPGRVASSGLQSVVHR
# Procedure: (§1) Overexpression and purification of GST-CK1δ fusion proteins, either wild type or mutant, were performed as described previously.
# (§2) Each kinase assay reaction was performed in kinase buffer (25 mM Tris-HCl (pH 7.5), 10 μM ATP, 10 mM MgCl2, 100 μM EDTA) in presence of purified GST-CK1δ kinase as source of enzyme (either wild type or mutant), an assay-specific substrate (α-casein, GST-p53^1−64, or GST-β-catenin^1−181), and radiolabeled ATP (2 μCi [γ-^32P]-ATP). For performing Michaelis–Menten analysis increasing substrate concentrations were used (α-casein: 0.39−25 μM; GST-p53^1−64: 0.09−1.87 μM; GST-β-catenin^1−181: 0.07−1.32 μM). For biological evaluation of small molecule inhibitors (SMIs), each inhibitor compound was either tested at 10 μM concentration for initial screening or by using a dilution series (0.005−10 µM) for determination of IC50 values. DMSO was used as control. Reactions were incubated for 30 min at 30 °C and reactions were stopped using 5x SDS-loading buffer (250 mM Tris-HCl [pH 6.8], 25% (v/v) β-mercaptoethanol (MSH), 50% (v/v) glycerol, 10% (w/v) SDS, 0.5% (w/v) bromphenol blue). Subsequently, samples were separated by SDS-PAGE using 12.5% acrylamide gels, stained with Coomassie, and phosphorylated substrates were visualized on X-ray film. Incorporation of radiolabeled phosphate was quantified by scintillation counting of Coomassie-stained substrate bands. Defined dilutions of the reaction master mix were counted as well in order to convert results obtained as counts per minute (CPM) to units of transferred phosphate in pmol/min. Michaelis–Menten analysis was performed using GraphPad Prism 6 (GraphPad Software, San Diego, CA, USA).
# CK1δ R127Q = biological target: T2, CK1δ R127Q (Homo sapiens, UniProt P48730, R127Q); assay: in vitro kinase assay, CK1δ mutant R127Q
# T2 sequence (P48730 1-415 R127Q): T1 sequence (P48730 1-415 R168H) with R127Q, H168R
# Procedure: as §1, §2
# CK1δ Q399* = biological target: T3, CK1δ Q399* (Homo sapiens, UniProt P48730); assay: in vitro kinase assay, CK1δ mutant Q399*
# T3 sequence (P48730 1-398): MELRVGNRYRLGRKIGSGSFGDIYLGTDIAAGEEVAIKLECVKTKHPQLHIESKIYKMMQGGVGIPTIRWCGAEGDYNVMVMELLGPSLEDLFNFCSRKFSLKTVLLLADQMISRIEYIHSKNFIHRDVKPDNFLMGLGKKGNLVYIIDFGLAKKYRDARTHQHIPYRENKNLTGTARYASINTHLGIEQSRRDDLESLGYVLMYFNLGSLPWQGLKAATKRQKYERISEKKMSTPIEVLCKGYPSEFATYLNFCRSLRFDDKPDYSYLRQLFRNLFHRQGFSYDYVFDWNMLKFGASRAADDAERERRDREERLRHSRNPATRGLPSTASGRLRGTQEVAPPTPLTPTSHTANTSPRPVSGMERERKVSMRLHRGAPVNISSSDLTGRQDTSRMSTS
# Procedure: as §1, §2
# CK1δ R127L = biological target: T4, CK1δ R127L (Homo sapiens, UniProt P48730, R127L); assay: in vitro kinase assay, CK1δ mutant R127L
# T4 sequence (P48730 1-415 R127L): T1 sequence (P48730 1-415 R168H) with R127L, H168R
# Procedure: as §1, §2
# CK1δ A36V = biological target: T5, CK1δ A36V (Homo sapiens, UniProt P48730, A36V); assay: in vitro kinase assay, CK1δ mutant A36V
# T5 sequence (P48730 1-415 A36V): T1 sequence (P48730 1-415 R168H) with A36V, H168R
# Procedure: as §1, §2
SMILES,Residual activity of CK1δ R168H (CK1δ R168H),Residual activity of CK1δ R127Q (CK1δ R127Q),Residual activity of CK1δ Q399* (CK1δ Q399*),Residual activity of CK1δ R127L (CK1δ R127L),Residual activity of CK1δ A36V (CK1δ A36V)
O=C(Nc1nc2ccc(C(F)(F)F)cc2[nH]1)c1csc(NC(=O)c2ccccc2OC(F)(F)F)n1 [Bischof-5],30 ± 16%,24 ± 8%,75 ± 30%,50 ± 11%,43 ± 15%
Cc1ccc2nc(NC(=O)CSc3nc4c(c(=O)n3-c3ccccc3)SCC4)sc2c1 [IWP-2],50 ± 9%,37 ± 5%,53 ± 27%,42 ± 9%,55 ± 6%
COc1ccccc1-n1c(SCC(=O)Nc2nc3ccc(C)cc3s2)nc2c(c1=O)SCC2 [IWP-4],61 ± 19%,36 ± 11%,96 ± 79%,48 ± 10%,49 ± 7%
